Inconclusive results and toxic doses are left out. Rule as the data show it: active = T/C of 150% or more; inactive = T/C below 125%.
System: L1210 leukemia ip in BDF1 mice, survival T/C
Assay: NCI In Vivo Anticancer Drug Screen. Data for tumor model L1210 Leukemia (intraperitoneal) in B6D2F1 (BDF1) mice
Conditions: higher = longer survival
Summary of the method: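 Tumor was transplanted into mice, which were then dosed with test compound or vehicle alone. Survival was recorded for each group, and the treated figure was expressed relative to the control figure.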

[1] = endpoint: mean survival time, dose: 100.0 mg/kg/injection, schedule: Q04DX003 (ip), vehicle: saline with Tween-80
[2] = endpoint: mean survival time, dose: 200.0 mg/kg/injection, schedule: Q04DX003 (ip), vehicle: saline with Tween-80
[3] = endpoint: mean survival time, dose: 400.0 mg/kg/injection, schedule: Q04DX003 (ip), vehicle: saline with Tween-80
[4] = endpoint: mean survival time, dose: 100.0 mg/kg/injection, schedule: Q01DX009 (ip), vehicle: saline with Tween-80
[5] = endpoint: mean survival time, dose: 100.0 mg/kg/injection, schedule: Q01DX009 (ip), vehicle: saline
[6] = endpoint: mean survival time, dose: 200.0 mg/kg/injection, schedule: Q01DX009 (ip), vehicle: saline
[7] = endpoint: mean survival time, dose: 400.0 mg/kg/injection, schedule: Q01DX009 (ip), vehicle: saline

Measured: T/C

CCCCCCC(=O)O[C@H]1CC[C@H]2[C@@H]3CCC4=CC(=O)CC[C@]4(C)[C@H]3CC[C@]12C
inactive: endpoint: median survival time, dose: 2.0 mg/kg/injection, schedule: Q04DX024 (ip), vehicle: other 94 % of control | endpoint: median survival time, dose: 4.0 mg/kg/injection, schedule: Q01DX016 (ip), vehicle: other 92 % of control | endpoint: median survival time, dose: 4.0 mg/kg/injection, schedule: Q04DX024 (ip), vehicle: other 94 % of control | endpoint: median survival time, dose: 8.0 mg/kg/injection, schedule: Q01DX008 (ip), vehicle: other 95 % of control | endpoint: median survival time, dose: 8.0 mg/kg/injection, schedule: Q01DX009 (ip), vehicle: other 98 % of control | endpoint: median survival time, dose: 8.0 mg/kg/injection, schedule: Q01DX016 (ip), vehicle: other 92 % of control | endpoint: median survival time, dose: 8.0 mg/kg/injection, schedule: Q04DX024 (ip), vehicle: other 91 % of control | endpoint: median survival time, dose: 16.0 mg/kg/injection, schedule: Q01DX008 (ip), vehicle: other 95 % of control | endpoint: median survival time, dose: 16.0 mg/kg/injection, schedule: Q01DX009 (ip), vehicle: other 97 % of control | endpoint: median survival time, dose: 16.0 mg/kg/injection, schedule: Q01DX016 (ip), vehicle: other 90 % of control | endpoint: median survival time, dose: 16.0 mg/kg/injection, schedule: Q04DX003 (ip), vehicle: other 98 % of control | endpoint: median survival time, dose: 16.0 mg/kg/injection, schedule: Q04DX024 (ip), vehicle: other 94 % of control | endpoint: median survival time, dose: 32.0 mg/kg/injection, schedule: Q01DX008 (ip), vehicle: other 112 % of control | endpoint: median survival time, dose: 32.0 mg/kg/injection, schedule: Q01DX009 (ip), vehicle: other 111 % of control | endpoint: median survival time, dose: 32.0 mg/kg/injection, schedule: Q01DX016 (ip), vehicle: other 95 % of control | endpoint: median survival time, dose: 32.0 mg/kg/injection, schedule: Q04DX003 (ip), vehicle: other 100 % of control | endpoint: median survival time, dose: 32.0 mg/kg/injection, schedule: Q04DX024 (ip), vehicle: other 92 % of control | endpoint: median survival time, dose: 32.0 mg/kg/injection, schedule: Q08DX002 (ip), vehicle: other 102 % of control | endpoint: median survival time, dose: 64.0 mg/kg/injection, schedule: Q01DX001 (ip), vehicle: other 98 % of control | endpoint: median survival time, dose: 64.0 mg/kg/injection, schedule: Q01DX008 (ip), vehicle: other 91 % of control | endpoint: median survival time, dose: 64.0 mg/kg/injection, schedule: Q01DX009 (ip), vehicle: other 92 % of control | endpoint: median survival time, dose: 64.0 mg/kg/injection, schedule: Q01DX016 (ip), vehicle: other 89 % of control | endpoint: median survival time, dose: 64.0 mg/kg/injection, schedule: Q04DX003 (ip), vehicle: other 107 % of control | endpoint: median survival time, dose: 64.0 mg/kg/injection, schedule: Q08DX002 (ip), vehicle: other 98 % of control | endpoint: median survival time, dose: 128.0 mg/kg/injection, schedule: Q01DX001 (ip), vehicle: other 104 % of control | endpoint: median survival time, dose: 128.0 mg/kg/injection, schedule: Q01DX009 (ip), vehicle: other 97 % of control | endpoint: median survival time, dose: 128.0 mg/kg/injection, schedule: Q04DX003 (ip), vehicle: other 101 % of control | endpoint: median survival time, dose: 128.0 mg/kg/injection, schedule: Q08DX002 (ip), vehicle: other 101 % of control | endpoint: median survival time, dose: 256.0 mg/kg/injection, schedule: Q01DX001 (ip), vehicle: other 122 % of control | endpoint: median survival time, dose: 256.0 mg/kg/injection, schedule: Q01DX009 (ip), vehicle: other 106 % of control | endpoint: median survival time, dose: 256.0 mg/kg/injection, schedule: Q04DX003 (ip), vehicle: other 102 % of control | endpoint: median survival time, dose: 256.0 mg/kg/injection, schedule: Q08DX002 (ip), vehicle: other 104 % of control | endpoint: median survival time, dose: 512.0 mg/kg/injection, schedule: Q01DX001 (ip), vehicle: other 101 % of control | endpoint: median survival time, dose: 512.0 mg/kg/injection, schedule: Q08DX002 (ip), vehicle: other 106 % of control

COC(=O)C12C=CC(C1)n1c(=O)n(-c3ccccc3)c(=O)n12 (centres undefined)
inactive: [1] 97 % of control | [2] 105 % of control | [3] 103 % of control

O=C(NC(=O)C1CC1)C1CC1
inactive: [4] 94 % of control | [1] 106 % of control | endpoint: mean survival time, dose: 200.0 mg/kg/injection, schedule: Q01DX009 (ip), vehicle: saline with Tween-80 100 % of control | [2] 87 % of control | endpoint: mean survival time, dose: 400.0 mg/kg/injection, schedule: Q01DX009 (ip), vehicle: saline with Tween-80 100 % of control | [3] 93 % of control

O=C(O)CCN1C(=O)CCC1=O
inactive: [5] 91 % of control | endpoint: mean survival time, dose: 100.0 mg/kg/injection, schedule: Q04DX003 (ip), vehicle: saline sonified 105 % of control | [6] 94 % of control | endpoint: mean survival time, dose: 200.0 mg/kg/injection, schedule: Q04DX003 (ip), vehicle: saline sonified 92 % of control | [7] 105 % of control | endpoint: mean survival time, dose: 400.0 mg/kg/injection, schedule: Q04DX003 (ip), vehicle: saline sonified 95 % of control

ClCCn1nc2c(c1-c1ccc(Cl)cc1)CCc1ccccc1-2
inactive: endpoint: mean survival time, dose: 100.0 mg/kg/injection, schedule: Q04DX003 (ip), vehicle: gum acacia 92 % of control | endpoint: mean survival time, dose: 200.0 mg/kg/injection, schedule: Q04DX003 (ip), vehicle: gum acacia 98 % of control | endpoint: mean survival time, dose: 400.0 mg/kg/injection, schedule: Q04DX003 (ip), vehicle: gum acacia 95 % of control

COC(=O)CC[C@@H](C)[C@H]1CC[C@H]2[C@@H]3CC[C@@H]4C[C@H](O)CC[C@]4(C)[C@H]3CC[C@]12C
inactive: endpoint: mean survival time, dose: 100.0 mg/kg/injection, schedule: Q01DX009 (sc), vehicle: olive oil, sesame oil, peanut oil 107 % of control | endpoint: mean survival time, dose: 200.0 mg/kg/injection, schedule: Q01DX009 (sc), vehicle: olive oil, sesame oil, peanut oil 102 % of control | endpoint: mean survival time, dose: 400.0 mg/kg/injection, schedule: Q01DX009 (sc), vehicle: olive oil, sesame oil, peanut oil 95 % of control

Cc1ccc([N+](=O)[O-])o1
inactive: [1] 91 % of control | [2] 87 % of control

O=C(CCCC(=O)NNC(=O)Nc1cccc([N+](=O)[O-])c1)NNC(=O)Nc1cccc([N+](=O)[O-])c1
inactive: endpoint: mean survival time, dose: 50.0 mg/kg/injection, schedule: Q01DX001 (ip), vehicle: saline 102 % of control | endpoint: mean survival time, dose: 100.0 mg/kg/injection, schedule: Q01DX001 (ip), vehicle: saline 102 % of control | endpoint: mean survival time, dose: 200.0 mg/kg/injection, schedule: Q01DX001 (ip), vehicle: saline 96 % of control | endpoint: mean survival time, dose: 400.0 mg/kg/injection, schedule: Q01DX001 (ip), vehicle: saline 102 % of control

Nc1ccc2c(c1)Cc1c-2cc(I)c(O)c1I
inactive: endpoint: mean survival time, dose: 100.0 mg/kg/injection, schedule: Q01DX001 (ip), vehicle: carboxymethylcellulose (CMC) 98 % of control | endpoint: mean survival time, dose: 200.0 mg/kg/injection, schedule: Q01DX001 (ip), vehicle: carboxymethylcellulose (CMC) 101 % of control | endpoint: mean survival time, dose: 400.0 mg/kg/injection, schedule: Q01DX001 (ip), vehicle: carboxymethylcellulose (CMC) 101 % of control

N#Cc1ccc(Nc2ccc(C#N)cc2)cc1
inactive: endpoint: mean survival time, dose: 25.0 mg/kg/injection, schedule: Q01DX009 (ip), vehicle: saline with Tween-80 105 % of control | endpoint: mean survival time, dose: 50.0 mg/kg/injection, schedule: Q01DX009 (ip), vehicle: saline with Tween-80 94 % of control | [4] 94 % of control | [1] 96 % of control | [2] 96 % of control | [3] 91 % of control

C=CC1=C(C)C(=O)N/C1=C\c1[nH]c(Cc2[nH]c(/C=C3/NC(=O)C(C(C)SC(C)=O)=C3C)cc2CCC(=O)O)c(CCC(=O)O)c1C (centres undefined)
inactive: endpoint: mean survival time, dose: 100.0 mg/kg/injection, schedule: Q04DX002 (ip), vehicle: Klucel (hydroxypropylcellulose) (HPC) 101 % of control | endpoint: mean survival time, dose: 200.0 mg/kg/injection, schedule: Q04DX002 (ip), vehicle: Klucel (hydroxypropylcellulose) (HPC) 108 % of control | endpoint: mean survival time, dose: 400.0 mg/kg/injection, schedule: Q04DX002 (ip), vehicle: Klucel (hydroxypropylcellulose) (HPC) 97 % of control

CC(=O)C1=CN(c2ccccc2)COC1C (centres undefined)
inactive: endpoint: mean survival time, dose: 50.0 mg/kg/injection, schedule: Q01DX009 (ip), vehicle: Klucel (hydroxypropylcellulose) (HPC) 107 % of control | endpoint: mean survival time, dose: 100.0 mg/kg/injection, schedule: Q01DX009 (ip), vehicle: Klucel (hydroxypropylcellulose) (HPC) 91 % of control | endpoint: mean survival time, dose: 200.0 mg/kg/injection, schedule: Q01DX009 (ip), vehicle: Klucel (hydroxypropylcellulose) (HPC) 100 % of control

CC(=O)Oc1ccc(OC(C)=O)c2c1CC1(C)OC1(C)C2 (centres undefined)
inactive: endpoint: mean survival time, dose: 25.0 mg/kg/injection, schedule: Q01DX009 (ip), vehicle: saline 104 % of control | endpoint: mean survival time, dose: 50.0 mg/kg/injection, schedule: Q01DX009 (ip), vehicle: saline 91 % of control | [5] 89 % of control | [6] 93 % of control | [7] 89 % of control

ClCCC[Si](Cl)(Cl)Cl
inactive: endpoint: mean survival time, dose: 75.0 mg/kg/injection, schedule: Q01DX001 (ip), vehicle: saline 109 % of control | endpoint: mean survival time, dose: 150.0 mg/kg/injection, schedule: Q01DX001 (ip), vehicle: saline 107 % of control | endpoint: mean survival time, dose: 300.0 mg/kg/injection, schedule: Q01DX001 (ip), vehicle: saline 100 % of control
